Where “and” joins values, the source holds several entries; their conditions need not be identical. Identical values can stand only once. Like-named read-outs stand apart in the source and are kept apart here.
Columns and labels:
[1] = enantioselective degradation of paclobutrazol in rat liver microsomes (Wu et al.); type: in vitro ADME; details: reconstructed from data of Fig. 3A in ref 19; R^2 0.97
Protocol: (§1) In addition to the microsome studies, the Rayleigh equation was fitted to reported studies on biodegradation of chiral compounds using liver microsomes and hepatocytes for which there was sufficient data available. We focused on studies published on years 2011–2015 that reported on first order kinetics and/or provided concentration - time profiles of the individual enantiomers after incubation of the racemate with the metabolizer, i.e. systems analyzed by approach II in the introduction.

[2] = de-methylation (enantioselective degradation) by human liver microsomes; details: HLM; for Overall first order kinetic constant, kc: racemate, 37 °C, 0–120 min; for Enantiomeric enrichment factor, εER: mean ± 95% confidence interval of Rayleigh slope, n = 3, NE = no enrichment
Protocol: (§2) The reactions were initiated by the addition of 120 μl NADPH-regenerating system (100 μL of solution A and 20 μL of solution B) that were added after a 3-min pre-incubation of the incubation mixtures containing 10 μl of substrate (1 g/L), 50 μl human/rat hepatic microsomes (20 mg protein/ml) and […] sodium phosphate buffer, 0.1 M pH 7.4 final volume was 500 μl. The reactions were stopped at time intervals by cooling on ice and addition of 100 μl acetonitrile followed by the addition of 20 μL internal standards stock solution (0.1 g/L). After termination of the reaction 200 microliter sodium carbonate solution (1 M, pH 12) was added and samples were then vigorously shaken for 1 min and consequently extracted into 6 ml n-hexane/acetonitrile (98/2 vol/vol) using an Intelli mixer on 50 rpm for 5 min. after centrifugation for 10 min (6,000 rpm) the upper organic layer was collected and the procedure was repeated. The samples were eventually evaporated till dry under a gentle stream of nitrogen. The residue was dissolved in 200 microliter methanol and analyzed by HPLC-MS. These degradation studies were done in duplicates.
(§3) Control assays were run under the same conditions, with 200 μL insect control supersomes (5 mg protein/ml) used as a negative control, i.e containing no CYP450 but the same protein content (cytochrome b5), while 10 μl of Verapamil (1 g/L) and 50 μl human microsomes (20 mg protein/ml) was incubated for 30 min as a positive control.
(§4) The chiral separation method was based on methodology of Begnall et al.[62]. […] For all separations the column and autosampler were maintained at 25 °C, with an optimal chromatographic run time of 24 minutes, the injection volume was 10 μL. QTOF mass spectrometer equipped with an electrospray ionization source (Agilent G3251A Dual ESI) was used for chiral drug identification and quantification. Analysis was performed in positive mode with a capillary voltage potential of 4000 V; the nebulizer gas pressure was set to 40 psi and drying gas flow was 10 L/min, with a drying gas temperature of 300 °C. The fragmentor voltage was set at 140 V, and skimmer voltage was 65 V. Scan range was 50–1000 m/z, the other MS parameters remained at auto-tune conditions.
(§5) The enantiomeric ratios were expressed as the ER – the peak area of one enantiomer (the more abundant) divided by that of the other enantiomer.

[3] = de-methylation (enantioselective degradation) by Sprague Dawley rat liver microsomes; type: in vitro ADME; details: RLM-SD; for Overall first order kinetic constant, kc: racemate, 37 °C, 0–120 min; for Enantiomeric enrichment factor, εER: mean ± 95% confidence interval of Rayleigh slope, n = 3, NE = no enrichment
Protocol: as §2, §3, §4, §5

[4] = de-methylation (enantioselective degradation) by Wistar Han rat liver microsomes; type: in vitro ADME; details: RLM-W; for Overall first order kinetic constant, kc: racemate, 37 °C, 0–120 min; for Enantiomeric enrichment factor, εER: mean ± 95% confidence interval of Rayleigh slope, n = 3, NE = no enrichment
Protocol: as §2, §3, §4, §5

[5] = de-methylation (enantioselective degradation) by Lewis rat liver microsomes; type: in vitro ADME; details: RLM-L; for Overall first order kinetic constant, kc: racemate, 37 °C, 0–120 min; for Enantiomeric enrichment factor, εER: mean ± 95% confidence interval of Rayleigh slope, n = 3, NE = no enrichment
Protocol: as §2, §3, §4, §5

[6] = de-methylation by liver microsomes, statements pooled over all microsome sources; type: in vitro ADME, human and rat; details: through all the incubations with the various microsomes
Protocol: as §2, with “The samples were eventually evaporated till dry under a gentle stream of nitrogen.” left out, “These degradation studies were done in duplicates.” left out
The chiral separation method was based on methodology of Begnall et al.[62]. […] QTOF mass spectrometer equipped with an electrospray ionization source (Agilent G3251A Dual ESI) was used for chiral drug identification and quantification. […]
as §5

[7] = cited from earlier work; for first order half-life: hepatocytes from male Sprague-Dawley rats; for individual first order rate constant: myclobutanil, hepatocytes from male Sprague–Dawley rats
[8] = design: method as in PMID 24027055; details: male Sprague–Dawley rat liver microsomes; cited from earlier work
[9] = design: method as in PMID 25820472; details: rat liver microsomes; cited from earlier work
[10] = stereoselective degradation of metalaxyl in hepatic microsomes (Zhang et al.); type: in vitro ADME, rat and rabbit; details: for individual degradation constant: calculated from concentration-time data of Fig. 3a in ref 22, R^2 = 0.98
Protocol: as §1

[11] = hepatic microsomes; cited from earlier work
[12] = loach liver microsomes; cited from earlier work
[13] = enantioselective metabolism in rat hepatocytes (reported studies); type: in vitro ADME
Protocol: as §1
Wang et al.[24] studied the enantioselective metabolism of the fungicide hexaconazole as well, they used male Sprague–Dawley rat hepatocytes. […] In a second test case, Wang et al.[52] studied the degradation of the fungicide myclobutanil in hepatocytes from male Sprague–Dawley rats.

[14] = enantioselective metabolism of diclofop-methyl in fish liver microsomes (Ma et al.); type: in vitro ADME, loach (Misgurnus anguillicaudatus); details: reconstructed from data of Fig. 3A in ref 50; R^2 = 0.94
Protocol: as §1

[15] = metabolism of hexaconazole in male Sprague–Dawley rat liver microsomes (Shen et al.); type: in vitro ADME; details: reconstructed from data of Fig. 3A in ref 20; R^2 = 0.99
Protocol: as §1

[16] = in vivo enantioselective behaviour in rabbit plasma and tissues after intravenous racemate (Sun et al.)
Source text: For example, Sun et al.[26] have reviewed the enantioselective behavior of the fungicide myclobutanil enantiomers in variant rabbit tissues following intravenous administration of the racemic fungicide. Using the plasma concentration-time curves of the two enantiomers (presented in Fig. 1A in ref. [26]) we obtained the enantiomeric enrichment factor of −28 ± 5 (R^2 = 0.97). Analysis of the distribution of myclobutanil in various tissues, presented in Fig. 3 in ref. [26], obtained the enantiomeric enrichment factors of −33 ± 16 (R^2 = 0.92) for the liver, −20 ± 6 (R^2 = 0.97) for the brain, −32 ± 16 (R^2 = 0.89) for the kidney and −21 ± 6 (R^2 = 0.97) for the muscle. […] This quantitative ranking is obscured by the large number of time trace data points in the original presentation. Another example can be presented by the study of Kong et al.[25] reporting on the stereoselective metabolism of the alpha blocker doxazosin (DOX) in vivo in male Sprague–Dawley rats.

## CC(C)(C)[C@@H](O)[C@@H](Cc1ccc(Cl)cc1)n1cncn1 (racemic) [(2RS, 3RS)-paclobutrazol]
[1]
  enantiomeric enrichment factor: −66 ± 14%

## CN(C)CCCC1(c2ccc(F)cc2)OCc2cc(C#N)ccc21 (racemic) [CTM, (R,S)-citalopram]
[2]
  Overall first order kinetic constant, kc: 0.007 min⁻¹
  Enantiomeric enrichment factor, εER: −36 ± 3 (0.95) %
[3]
  Overall first order kinetic constant, kc: 0.02 min⁻¹
  Enantiomeric enrichment factor, εER: −10 ± 4 (0.92) %
[4]
  Overall first order kinetic constant, kc: 0.07 min⁻¹
  Enantiomeric enrichment factor, εER: −53 ± 3 (0.95) %
[5]
  Overall first order kinetic constant, kc: 0.007 min⁻¹

## CNCCC(Oc1ccc(C(F)(F)F)cc1)c1ccccc1 (racemic) [FLX, (R,S)-fluoxetine]
[2]
  Overall first order kinetic constant, kc: 0.01 min⁻¹
[3]
  Overall first order kinetic constant, kc: 0.02 min⁻¹
[4]
  Overall first order kinetic constant, kc: 0.06 min⁻¹
[5]
  Overall first order kinetic constant, kc: 0.04 min⁻¹

## CN1CCN2c3ccccc3Cc3ccccc3C2C1 (racemic) [MNS, (R,S)-mianserin]
[2]
  Overall first order kinetic constant, kc: 0.004 min⁻¹
  Enantiomeric enrichment factor, εER: −237 ± 29% and −237 ± 29 (0.92) %
[3]
  Overall first order kinetic constant, kc: 0.02 min⁻¹
  Enantiomeric enrichment factor, εER: −11 ± 6 (0.92) %
[4]
  Overall first order kinetic constant, kc: 0.008 min⁻¹
  Enantiomeric enrichment factor, εER: −38 ± 5 (0.92) %
[5]
  Overall first order kinetic constant, kc: 0.03 min⁻¹
  Enantiomeric enrichment factor, εER: −53 ± 12 (0.98) %

## CN(C)CC(c1ccc(O)cc1)C1(O)CCCCC1 (racemic) [O-DMV, (R,S)-O-desmethylvanlafaxine]
[2]
  Overall first order kinetic constant, kc: 0.025 min⁻¹
  Enantiomeric enrichment factor, εER: −7 ± 1 (0.98) %
[3]
  Overall first order kinetic constant, kc: 0.009 min⁻¹
  Enantiomeric enrichment factor, εER: −9 ± 1 (0.96) %
[4]
  Overall first order kinetic constant, kc: 0.02 min⁻¹
  Enantiomeric enrichment factor, εER: −4 ± 1% and −4 ± 1 (0.91) %
[5]
  Overall first order kinetic constant, kc: 0.007 min⁻¹
  Enantiomeric enrichment factor, εER: −59 ± 2 (0.94) %

## COc1ccc(C(CN(C)C)C2(O)CCCCC2)cc1 (racemic) [VNF, (R,S)-venlafaxine]
[2]
  Overall first order kinetic constant, kc: 0.01 min⁻¹
[3]
  Overall first order kinetic constant, kc: 0.03 min⁻¹
[4]
  Overall first order kinetic constant, kc: 0.05 min⁻¹
[5]
  Overall first order kinetic constant, kc: 0.009 min⁻¹
[6]
  enantiomeric ratio, ER: 1.1 ± 0.08

## CCOC1Oc2ccc(OS(C)(=O)=O)cc2C1(C)C (single isomer, unassigned; (+)) [(+) ETO]
[7]; ethofumesate
  first order half-life: 120 min

## CCCCCCC(C)OC(=O)COc1nc(F)c(Cl)c(N)c1Cl (single isomer, unassigned; (+)) [(+) FPMH]
[7]; fluroxypyr methylheptyl ester
  first order half-life: 5.1 min

## CCCCC(O)(Cn1cncn1)c1ccc(Cl)cc1Cl (single isomer, unassigned; (+)) [(+)-hexaconazole]
[8]
  individual first order degradation rate constant: 0.09324 min⁻¹

## CCCCC(C#N)(Cn1cncn1)c1ccc(Cl)cc1 (single isomer, unassigned; (+)) [(+)-myclobutanil]
[7]
  individual first order rate constant: 0.065 h⁻¹

## CCOC1Oc2ccc(OS(C)(=O)=O)cc2C1(C)C (single isomer, unassigned; (-)) [(−) ETO]
[7]; ethofumesate
  first order half-life: 246 min

## CCCCCCC(C)OC(=O)COc1nc(F)c(Cl)c(N)c1Cl (single isomer, unassigned; (-)) [(−) FPMH]
[7]; fluroxypyr methylheptyl ester
  first order half-life: 13.1 min

## CCCCC(O)(Cn1cncn1)c1ccc(Cl)cc1Cl (single isomer, unassigned; (-)) [(−)-hexaconazole]
[8]
  individual first order degradation rate constant: 0.06804 min⁻¹

## CCCCC(C#N)(Cn1cncn1)c1ccc(Cl)cc1 (single isomer, unassigned; (-)) [(−)-myclobutanil]
[7]
  individual first order rate constant: 0.046 h⁻¹

## CC(C)(C)[C@@H](O)[C@@H](Cc1ccc(Cl)cc1)n1cncn1 [(2R, 3R)-paclobutraz]
[9]
  individual first order degradation rate constant: 0.0373 min⁻¹

## CC(C)(C)[C@H](O)[C@H](Cc1ccc(Cl)cc1)n1cncn1 [(2S, 3S)-paclobutrazol]
[9]
  individual first order degradation rate constant: 0.0634 min⁻¹

## COCC(=O)N(c1c(C)cccc1C)[C@@H](C)C(=O)OC [(+)-S-MX]
[10]
  individual degradation constant: 0.0864 min⁻¹
[11]
  half-life: 7.71 min

## COC(=O)[C@@H](C)Oc1ccc(Oc2ccc(Cl)cc2Cl)cc1 [(R)-DM]
[12]
  individual first order degradation rate constant: 0.0346 min⁻¹

## COC(=O)[C@H](C)Oc1ccc(Oc2ccc(Cl)cc2Cl)cc1 [(S)-DM]
[12]
  individual first order degradation rate constant: 0.1904 min⁻¹

## COCC(=O)N(c1c(C)cccc1C)[C@H](C)C(=O)OC [(−)-R-MX]
[10]
  individual degradation constant: 0.0415 min⁻¹
[11]
  half-life: 15.58 min

## CCOC1Oc2ccc(OS(C)(=O)=O)cc2C1(C)C (stereo not shown) [ETO, ethofumesate]
[13]; ETO, reconstructed from concentration–time curves of Fig. 2 in ref 53, R^2 = 0.96
  enantiomeric enrichment factor: −75 ± 11%

## COC(=O)C(C)Oc1ccc(Oc2ccc(Cl)cc2Cl)cc1 (stereo not shown) [diclofop-methyl]
[14]
  enantiomeric enrichment factor: −142 ± 40%

## CCCCC(O)(Cn1cncn1)c1ccc(Cl)cc1Cl (stereo not shown) [hexaconazole]
[15]
  enantiomeric enrichment factor: −37 ± 2%
[13]; hexaconazole, reconstructed from Fig. 3a in ref 24, R^2 = 0.99
  enantiomeric enrichment factor: −184 ± 6%

## COCC(=O)N(c1c(C)cccc1C)C(C)C(=O)OC (stereo not shown) [metalaxyl]
[10]; reconstructed from data of Fig. 3a in ref 22, R^2 = 0.94
  Enantiomeric enrichment factor, εER: −78 ± 14%

## CCCCC(C#N)(Cn1cncn1)c1ccc(Cl)cc1 (stereo not shown) [myclobutanil]
[13]; myclobutanil, reconstructed from Fig. 3a in ref 52, R^2 = 0.97
  enantiomeric enrichment factor: −24 ± 2%
[16]; rabbit brain, from Fig. 3 in ref 26, R^2 = 0.97
  enantiomeric enrichment factor: −20 ± 6
[16]; rabbit kidney, from Fig. 3 in ref 26, R^2 = 0.89
  enantiomeric enrichment factor: −32 ± 16
[16]; rabbit liver, from Fig. 3 in ref 26, R^2 = 0.92
  enantiomeric enrichment factor: −33 ± 16
[16]; rabbit muscle, from Fig. 3 in ref 26, R^2 = 0.97
  enantiomeric enrichment factor: −21 ± 6
[16]; rabbit plasma, intravenous racemate, from Fig. 1A in ref 26, R^2 = 0.97
  enantiomeric enrichment factor: −28 ± 5
[16]; rabbits' hearts and fats, data of ref 26
  decay kinetics / adherence to the Rayleigh law: does not follow linear kinetics

— publication PMC4810358, “Applicability of the Rayleigh equation for enantioselective metabolism of chiral xenobiotics by microsomes, hepatocytes and in-vivo retention in rabbit tissues” (Scientific Reports, 2016)
